Experimental data reported in ChEMBL document CHEMBL4507265 (2021).

How the values were obtained:
[1] = molecular target: LIM domain kinase 1 (Homo sapiens) (UniProt P53667); conditions: Compound concentration 1000.0 nM
[2] = molecular target: Tyrosine-protein kinase FRK (Homo sapiens) (UniProt P42685); conditions: Compound concentration 1000.0 nM
[3] = molecular target: Serine/threonine-protein kinase ICK (Homo sapiens) (UniProt Q9UPZ9); conditions: Compound concentration 1000.0 nM
[4] = molecular target: Phosphatidylinositol 4,5-bisphosphate 3-kinase catalytic subunit delta isoform (Homo sapiens) (UniProt O00329); conditions: Compound concentration 1000.0 nM
[5] = molecular target: Serine/threonine-protein kinase Nek9 (Homo sapiens) (UniProt Q8TD19); conditions: Compound concentration 1000.0 nM
[6] = molecular target: Calcium/calmodulin-dependent protein kinase type II subunit delta (Homo sapiens) (UniProt Q13557); conditions: Compound concentration 1000.0 nM
[7] = molecular target: Tyrosine-protein kinase TXK (Homo sapiens) (UniProt P42681); conditions: Compound concentration 1000.0 nM
[8] = molecular target: Alpha-1B adrenergic receptor (Homo sapiens) (UniProt P35368); conditions: Compound concentration 10.0 uM
[9] = molecular target: MAP/microtubule affinity-regulating kinase 3 (Homo sapiens) (UniProt P27448); conditions: Compound concentration 1000.0 nM
[10] = molecular target: Ephrin type-A receptor 7 (Homo sapiens) (UniProt Q15375); conditions: Compound concentration 1000.0 nM
[11] = molecular target: Serine/threonine-protein kinase tousled-like 1 (Homo sapiens) (UniProt Q9UKI8); conditions: Compound concentration 1000.0 nM
[12] = molecular target: Wee1-like protein kinase 2 (Homo sapiens) (UniProt P0C1S8); conditions: Compound concentration 1000.0 nM
[13] = molecular target: MAP kinase-activated protein kinase 2 (Homo sapiens) (UniProt P49137); conditions: Compound concentration 1000.0 nM
[14] = tested on: Phosphatidylinositol 4,5-bisphosphate 3-kinase catalytic subunit alpha isoform (Homo sapiens), P42336 [E545A]; conditions: Compound concentration 1000.0 nM
[15] = tested on: Tyrosine-protein kinase ABL1 (Homo sapiens), P00519 [Q252H]; conditions: Compound concentration 1000.0 nM
[16] = molecular target: Activin receptor type-1 (Homo sapiens) (UniProt Q04771); conditions: Compound concentration 1000.0 nM
[17] = molecular target: Mitogen-activated protein kinase kinase kinase kinase 2 (Homo sapiens) (UniProt Q12851); conditions: Compound concentration 1000.0 nM
[18] = molecular target: Peripheral plasma membrane protein CASK (Homo sapiens) (UniProt O14936); conditions: Compound concentration 1000.0 nM
[19] = molecular target: Interleukin-1 receptor-associated kinase 3 (Homo sapiens) (UniProt Q9Y616); conditions: Compound concentration 1000.0 nM
[20] = molecular target: Tyrosine-protein kinase Yes (Homo sapiens) (UniProt P07947); conditions: Compound concentration 1000.0 nM
[21] = tested on: Phosphatidylinositol 4,5-bisphosphate 3-kinase catalytic subunit alpha isoform (Homo sapiens), P42336 [M1043I]; conditions: Compound concentration 1000.0 nM
[22] = molecular target: Cyclin-dependent kinase 18 (Homo sapiens) (UniProt Q07002); conditions: Compound concentration 1000.0 nM
[23] = molecular target: Serine/threonine-protein kinase TAO2 (Homo sapiens) (UniProt Q9UL54); conditions: Compound concentration 1000.0 nM
[24] = molecular target: Serine/threonine-protein kinase PAK 3 (Homo sapiens) (UniProt O75914); conditions: Compound concentration 1000.0 nM
[25] = molecular target: Myosin-IIIb (Homo sapiens) (UniProt Q8WXR4); conditions: Compound concentration 1000.0 nM
[26] = tested on: Tyrosine-protein kinase ABL1 (Homo sapiens), P00519 [H396P]; conditions: Compound concentration 1000.0 nM
[27] = molecular target: Inhibitor of nuclear factor kappa-B kinase subunit beta (Homo sapiens) (UniProt O14920); conditions: Compound concentration 1000.0 nM
[28] = molecular target: Ephrin type-B receptor 3 (Homo sapiens) (UniProt P54753); conditions: Compound concentration 1000.0 nM
[29] = tested on: Tyrosine-protein kinase ABL1 (Homo sapiens), P00519 [T315I]; conditions: Compound concentration 1000.0 nM
[30] = molecular target: Fibroblast growth factor receptor 4 (Homo sapiens) (UniProt P22455); conditions: Compound concentration 1000.0 nM
[31] = molecular target: cAMP-dependent protein kinase catalytic subunit PRKX (Homo sapiens) (UniProt P51817); conditions: Compound concentration 1000.0 nM
[32] = molecular target: Tyrosine-protein kinase Fes/Fps (Homo sapiens) (UniProt P07332); conditions: Compound concentration 1000.0 nM
[33] = molecular target: Calcium/calmodulin-dependent protein kinase type 1D (Homo sapiens) (UniProt Q8IU85); conditions: Compound concentration 1000.0 nM
[34] = molecular target: Receptor-interacting serine/threonine-protein kinase 4 (Homo sapiens) (UniProt P57078); conditions: Compound concentration 1000.0 nM
[35] = molecular target: Mitogen-activated protein kinase kinase kinase 3 (Homo sapiens) (UniProt Q99759); conditions: Compound concentration 1000.0 nM
[36] = molecular target: cAMP-dependent protein kinase catalytic subunit beta (Homo sapiens) (UniProt P22694); conditions: Compound concentration 1000.0 nM
[37] = molecular target: Serine/threonine-protein kinase BRSK1 (Homo sapiens) (UniProt Q8TDC3); conditions: Compound concentration 1000.0 nM
[38] = molecular target: Serine/threonine-protein kinase pim-1 (Homo sapiens) (UniProt P11309); conditions: Compound concentration 1000.0 nM
[39] = tested on: Epidermal growth factor receptor (Homo sapiens), P00533 [L858R,T790M]; conditions: Compound concentration 1000.0 nM
[40] = molecular target: Serine/threonine-protein kinase PAK 5 (Homo sapiens) (UniProt Q9P286); conditions: Compound concentration 1000.0 nM
[41] = molecular target: Serine/threonine-protein kinase TAO3 (Homo sapiens) (UniProt Q9H2K8); conditions: Compound concentration 1000.0 nM
[42] = molecular target: Serine/threonine-protein kinase MAK (Homo sapiens) (UniProt P20794); conditions: Compound concentration 1000.0 nM
[43] = molecular target: Mitogen-activated protein kinase 9 (Homo sapiens) (UniProt P45984); conditions: Compound concentration 1000.0 nM
[44] = molecular target: Dual specificity mitogen-activated protein kinase kinase 2 (Homo sapiens) (UniProt P36507); conditions: Compound concentration 1000.0 nM
[45] = molecular target: Fibroblast growth factor receptor 1 (Homo sapiens) (UniProt P11362); conditions: Compound concentration 1000.0 nM

Chain of Fibroblast growth factor receptor 4 (Homo sapiens) (P22455 22-802 limits assumed): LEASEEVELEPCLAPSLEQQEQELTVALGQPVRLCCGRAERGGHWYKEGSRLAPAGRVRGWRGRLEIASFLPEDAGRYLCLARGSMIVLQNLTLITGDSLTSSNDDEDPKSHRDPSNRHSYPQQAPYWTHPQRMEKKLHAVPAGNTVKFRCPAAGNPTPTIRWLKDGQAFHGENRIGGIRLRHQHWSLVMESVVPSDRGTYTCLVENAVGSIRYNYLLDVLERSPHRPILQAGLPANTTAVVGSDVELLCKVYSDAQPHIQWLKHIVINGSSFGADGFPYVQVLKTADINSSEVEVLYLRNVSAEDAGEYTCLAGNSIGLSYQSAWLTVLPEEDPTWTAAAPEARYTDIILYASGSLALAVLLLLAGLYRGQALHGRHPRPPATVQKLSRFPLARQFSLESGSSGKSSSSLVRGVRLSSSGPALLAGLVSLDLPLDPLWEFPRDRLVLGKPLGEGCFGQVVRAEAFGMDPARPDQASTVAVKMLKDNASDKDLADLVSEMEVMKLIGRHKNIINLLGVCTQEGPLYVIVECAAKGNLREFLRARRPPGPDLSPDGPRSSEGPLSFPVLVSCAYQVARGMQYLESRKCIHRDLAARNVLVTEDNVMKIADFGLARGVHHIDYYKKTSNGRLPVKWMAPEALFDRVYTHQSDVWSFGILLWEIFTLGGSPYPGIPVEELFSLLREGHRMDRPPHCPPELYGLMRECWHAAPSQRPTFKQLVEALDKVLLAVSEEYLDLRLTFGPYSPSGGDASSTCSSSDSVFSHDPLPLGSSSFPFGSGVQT
Chain of Inhibitor of nuclear factor kappa-B kinase subunit beta (Homo sapiens) (O14920 whole entry): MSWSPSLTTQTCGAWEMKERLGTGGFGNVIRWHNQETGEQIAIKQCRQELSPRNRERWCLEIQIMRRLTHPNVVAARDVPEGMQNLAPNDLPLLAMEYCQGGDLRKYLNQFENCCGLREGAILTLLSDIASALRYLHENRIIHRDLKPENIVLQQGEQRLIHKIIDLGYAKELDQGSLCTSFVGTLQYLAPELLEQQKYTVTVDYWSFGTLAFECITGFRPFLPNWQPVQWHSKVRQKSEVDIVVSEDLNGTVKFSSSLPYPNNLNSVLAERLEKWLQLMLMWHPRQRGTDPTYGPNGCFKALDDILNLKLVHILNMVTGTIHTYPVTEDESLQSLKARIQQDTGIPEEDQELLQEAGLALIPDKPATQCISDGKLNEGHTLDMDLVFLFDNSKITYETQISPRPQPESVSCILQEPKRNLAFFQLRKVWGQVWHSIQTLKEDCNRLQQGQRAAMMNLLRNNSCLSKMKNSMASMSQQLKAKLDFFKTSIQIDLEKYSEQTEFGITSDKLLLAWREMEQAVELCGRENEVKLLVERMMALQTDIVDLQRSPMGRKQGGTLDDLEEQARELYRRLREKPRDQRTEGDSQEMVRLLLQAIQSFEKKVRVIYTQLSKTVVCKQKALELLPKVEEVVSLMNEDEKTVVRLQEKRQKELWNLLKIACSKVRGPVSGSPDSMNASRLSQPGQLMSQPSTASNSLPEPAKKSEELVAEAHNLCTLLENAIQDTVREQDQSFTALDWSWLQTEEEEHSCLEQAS
Chain of Mitogen-activated protein kinase kinase kinase 3 (Homo sapiens) (Q99759 whole entry): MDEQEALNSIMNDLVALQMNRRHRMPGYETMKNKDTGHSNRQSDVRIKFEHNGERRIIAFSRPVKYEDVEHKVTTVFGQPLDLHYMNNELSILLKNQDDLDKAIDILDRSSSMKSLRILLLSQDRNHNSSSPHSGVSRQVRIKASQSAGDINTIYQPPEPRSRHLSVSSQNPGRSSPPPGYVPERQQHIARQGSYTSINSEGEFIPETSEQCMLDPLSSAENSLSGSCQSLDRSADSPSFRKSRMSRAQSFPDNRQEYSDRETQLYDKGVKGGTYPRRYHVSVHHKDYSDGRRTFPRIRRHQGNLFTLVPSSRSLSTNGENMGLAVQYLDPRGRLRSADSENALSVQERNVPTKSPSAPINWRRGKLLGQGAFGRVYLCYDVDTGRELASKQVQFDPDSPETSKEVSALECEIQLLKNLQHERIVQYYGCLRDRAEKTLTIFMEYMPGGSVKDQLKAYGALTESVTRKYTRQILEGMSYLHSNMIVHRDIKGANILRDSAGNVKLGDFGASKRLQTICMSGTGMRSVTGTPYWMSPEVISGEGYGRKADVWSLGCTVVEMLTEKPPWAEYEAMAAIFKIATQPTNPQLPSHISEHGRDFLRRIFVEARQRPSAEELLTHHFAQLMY
Chain of Myosin-IIIb (Homo sapiens) (Q8WXR4 whole entry): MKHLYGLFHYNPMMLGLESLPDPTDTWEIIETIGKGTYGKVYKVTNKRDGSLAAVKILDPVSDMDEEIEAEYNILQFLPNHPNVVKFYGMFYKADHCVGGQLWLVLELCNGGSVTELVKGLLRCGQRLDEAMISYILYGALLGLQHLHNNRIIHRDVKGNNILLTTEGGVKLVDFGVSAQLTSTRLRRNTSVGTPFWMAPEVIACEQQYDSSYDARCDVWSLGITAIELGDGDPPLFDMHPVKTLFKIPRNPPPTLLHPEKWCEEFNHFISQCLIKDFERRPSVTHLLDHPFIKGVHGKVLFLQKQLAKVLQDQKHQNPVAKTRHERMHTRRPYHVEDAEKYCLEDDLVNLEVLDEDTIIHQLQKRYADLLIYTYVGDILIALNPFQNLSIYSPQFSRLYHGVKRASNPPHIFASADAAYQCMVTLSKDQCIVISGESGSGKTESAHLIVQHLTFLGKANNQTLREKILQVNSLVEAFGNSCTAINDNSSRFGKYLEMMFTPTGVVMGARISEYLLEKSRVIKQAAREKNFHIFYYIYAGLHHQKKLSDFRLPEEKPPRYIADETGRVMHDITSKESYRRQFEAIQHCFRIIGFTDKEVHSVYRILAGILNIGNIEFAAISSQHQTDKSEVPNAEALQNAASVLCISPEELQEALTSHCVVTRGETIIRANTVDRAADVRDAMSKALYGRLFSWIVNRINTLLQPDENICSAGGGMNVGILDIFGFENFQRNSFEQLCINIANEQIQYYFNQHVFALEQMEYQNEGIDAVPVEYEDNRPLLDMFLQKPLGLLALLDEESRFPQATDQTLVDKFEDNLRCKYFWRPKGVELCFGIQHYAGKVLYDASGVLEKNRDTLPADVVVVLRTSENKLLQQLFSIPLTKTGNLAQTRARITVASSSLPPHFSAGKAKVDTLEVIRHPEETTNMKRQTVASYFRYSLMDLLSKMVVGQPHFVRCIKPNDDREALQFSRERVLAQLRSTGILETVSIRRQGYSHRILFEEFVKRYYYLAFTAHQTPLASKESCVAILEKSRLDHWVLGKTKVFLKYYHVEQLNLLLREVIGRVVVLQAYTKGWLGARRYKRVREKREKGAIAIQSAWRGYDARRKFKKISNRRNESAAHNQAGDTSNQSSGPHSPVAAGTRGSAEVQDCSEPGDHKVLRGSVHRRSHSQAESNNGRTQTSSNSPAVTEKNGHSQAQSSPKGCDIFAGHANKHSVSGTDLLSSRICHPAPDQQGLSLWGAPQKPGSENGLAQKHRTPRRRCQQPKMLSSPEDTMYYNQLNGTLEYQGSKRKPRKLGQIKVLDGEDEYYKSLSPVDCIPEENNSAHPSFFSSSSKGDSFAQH
Chain of Tyrosine-protein kinase Fes/Fps (Homo sapiens) (P07332 whole entry): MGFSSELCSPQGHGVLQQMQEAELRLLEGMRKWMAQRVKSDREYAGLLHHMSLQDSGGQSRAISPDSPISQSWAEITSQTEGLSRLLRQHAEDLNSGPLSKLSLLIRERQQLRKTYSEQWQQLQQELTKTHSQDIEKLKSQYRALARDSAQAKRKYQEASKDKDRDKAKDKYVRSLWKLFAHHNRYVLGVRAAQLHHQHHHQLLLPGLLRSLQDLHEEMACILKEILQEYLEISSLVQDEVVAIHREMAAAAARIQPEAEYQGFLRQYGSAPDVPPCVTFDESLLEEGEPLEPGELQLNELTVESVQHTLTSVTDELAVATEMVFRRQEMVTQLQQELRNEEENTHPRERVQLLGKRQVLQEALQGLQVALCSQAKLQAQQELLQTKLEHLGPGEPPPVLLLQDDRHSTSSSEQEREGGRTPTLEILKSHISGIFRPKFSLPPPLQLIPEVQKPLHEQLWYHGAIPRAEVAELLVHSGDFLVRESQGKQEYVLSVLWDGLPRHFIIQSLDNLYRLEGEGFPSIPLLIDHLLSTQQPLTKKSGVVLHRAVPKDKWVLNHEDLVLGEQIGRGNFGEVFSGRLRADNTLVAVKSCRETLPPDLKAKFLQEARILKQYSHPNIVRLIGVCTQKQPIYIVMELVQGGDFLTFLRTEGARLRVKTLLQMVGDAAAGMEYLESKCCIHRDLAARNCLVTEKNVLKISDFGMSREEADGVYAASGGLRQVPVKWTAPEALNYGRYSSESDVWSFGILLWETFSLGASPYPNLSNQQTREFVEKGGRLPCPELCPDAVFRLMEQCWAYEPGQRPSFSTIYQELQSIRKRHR
Chain of Tyrosine-protein kinase Yes (Homo sapiens) (P07947 2-543 limits assumed): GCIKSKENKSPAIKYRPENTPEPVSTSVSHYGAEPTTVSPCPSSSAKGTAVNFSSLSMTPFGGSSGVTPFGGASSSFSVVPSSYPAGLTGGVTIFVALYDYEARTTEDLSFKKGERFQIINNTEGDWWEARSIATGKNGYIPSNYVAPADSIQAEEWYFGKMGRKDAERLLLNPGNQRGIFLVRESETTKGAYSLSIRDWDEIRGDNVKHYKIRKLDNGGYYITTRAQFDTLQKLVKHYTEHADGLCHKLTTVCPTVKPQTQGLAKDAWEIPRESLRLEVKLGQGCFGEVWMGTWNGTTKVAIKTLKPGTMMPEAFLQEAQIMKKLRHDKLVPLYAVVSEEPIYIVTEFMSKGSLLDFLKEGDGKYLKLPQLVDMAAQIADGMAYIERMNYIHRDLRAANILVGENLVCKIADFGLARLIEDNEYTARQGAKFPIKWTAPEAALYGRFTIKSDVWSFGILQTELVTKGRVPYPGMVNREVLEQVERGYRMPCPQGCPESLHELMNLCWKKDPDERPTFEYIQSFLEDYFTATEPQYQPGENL

NS(=O)(=O)c1cc(NC(=O)C2(c3ccccc3Cl)CC2)ccc1Oc1cccc(Cl)c1 [BAY-207]
residual activity [1]: 100%
residual activity [2]: 99%
residual activity [3]: 100%
residual activity [4]: 99%
residual activity [5]: 94%
residual activity [6]: 100%
residual activity [7]: 90%
inhibition [8]: -8.97%
residual activity [9]: 92%
residual activity [10]: 82%
residual activity [11]: 99%
residual activity [12]: 74%
residual activity [13]: 90%
residual activity [14]: 82%
residual activity [15]: 58%
residual activity [16]: 100%
residual activity [17]: 100%
residual activity [18]: 89%
residual activity [19]: 75%
residual activity [20]: 90%
residual activity [21]: 98%
residual activity [22]: 69%
residual activity [23]: 82%
residual activity [24]: 64%
residual activity [25]: 29%
residual activity [26]: 93%
residual activity [27]: 70%
residual activity [28]: 62%
residual activity [29]: 82%
residual activity [30]: 100%
residual activity [31]: 77%
residual activity [32]: 64%
residual activity [33]: 97%
residual activity [34]: 100%
residual activity [35]: 100%
residual activity [36]: 88%
residual activity [37]: 82%
residual activity [38]: 94%
residual activity [39]: 88%
residual activity [40]: 100%
residual activity [41]: 100%
residual activity [42]: 89%
residual activity [43]: 100%
residual activity [44]: 89%
residual activity [45]: 100%

NS(=O)(=O)c1cc(NC(=O)Cc2ccccc2)ccc1Oc1cccc(Cl)c1 [BAY-1797]
residual activity [1]: 87%
residual activity [2]: 98%
residual activity [3]: 100%
residual activity [4]: 93%
residual activity [5]: 83%
residual activity [6]: 97%
residual activity [7]: 92%
inhibition [8]: -0.38%
residual activity [9]: 100%
residual activity [10]: 92%
residual activity [11]: 99%
residual activity [12]: 78%
residual activity [13]: 100%
residual activity [14]: 69%
residual activity [15]: 100%
residual activity [16]: 84%
residual activity [17]: 84%
residual activity [18]: 86%
residual activity [19]: 87%
residual activity [20]: 86%
residual activity [21]: 93%
residual activity [22]: 100%
residual activity [23]: 76%
residual activity [24]: 85%
residual activity [25]: 100%
residual activity [26]: 73%
residual activity [27]: 91%
residual activity [28]: 94%
residual activity [29]: 61%
residual activity [30]: 95%
residual activity [31]: 91%
residual activity [32]: 92%
residual activity [33]: 100%
residual activity [34]: 83%
residual activity [35]: 71%
residual activity [36]: 100%
residual activity [37]: 91%
residual activity [38]: 89%
residual activity [39]: 75%
residual activity [40]: 63%
residual activity [41]: 75%
residual activity [42]: 100%
residual activity [43]: 83%
residual activity [44]: 100%
residual activity [45]: 100%
